Data reported in patent US4323567A, “Arylmalonamido-1-oxadethiacephalosporins” (priority 1976, dated 1982).

Tests used:
Experiment in all cases: Minimal inhibitory concentration, nutrient agar plate
Klebsiella sp. 363 = type: cell-based; details: SP.363, as sodium salt, inoculum size 10^8, pH 7.0, read-out: Minimal inhibitory concentration
Ps. aeruginosa 25619 = type: cell-based, Pseudomonas aeruginosa; details: Pseudomonas aeruginosa, 25619; as sodium salt, inoculum size 10^8, pH 7.0; read-out: Minimal inhibitory concentration
Klebsiella pneumoniae = type: cell-based; details: as sodium salt, inoculum size 10^8, pH 7.0, read-out: Minimal inhibitory concentration
[1] = tested on: Serratia marsescens 13880; type: cell-based; details: Serratia, 13880; as sodium salt, inoculum size 10^8, pH 7.0; read-out: Minimal inhibitory concentration
Enterobacter cloacae 233 = type: cell-based; details: Enterobacter cloacae, 233; as sodium salt, inoculum size 10^8, pH 7.0; read-out: Minimal inhibitory concentration
E. coli 377 = type: cell-based, Escherichia coli; details: Escherichia coli, 377; as sodium salt, inoculum size 10^8, pH 7.0; read-out: Minimal inhibitory concentration
E. coli JC-2 = type: cell-based; details: Escherichia coli, JC2; as sodium salt, inoculum size 10^8, pH 7.0; read-out: Minimal inhibitory concentration
E. coli 73 = type: cell-based, Escherichia coli; details: Escherichia coli, 73; as sodium salt, inoculum size 10^8, pH 7.0; read-out: Minimal inhibitory concentration
Ps. aeruginosa 24 = type: cell-based, Pseudomonas aeruginosa; details: Pseudomonas aeruginosa, 24; as sodium salt, inoculum size 10^8, pH 7.0; read-out: Minimal inhibitory concentration
[2] = tested on: Pseudomonas aeruginosa Denken; type: cell-based; details: as sodium salt, inoculum size 10^8, pH 7.0, read-out: Minimal inhibitory concentration
P. morganii No. 9 = type: cell-based, Proteus morganii; details: Morganella morganii, NO.9; as sodium salt, inoculum size 10^8, pH 7.0; read-out: Minimal inhibitory concentration
Proteus mirabilis PR-4 = type: cell-based; details: PR4, as sodium salt, inoculum size 10^8, pH 7.0, read-out: Minimal inhibitory concentration
P. vulgaris CN-329 = type: cell-based; details: Proteus vulgaris, CN329; as sodium salt, inoculum size 10^8, pH 7.0; read-out: Minimal inhibitory concentration
Escherichia coli H = type: cell-based; details: as sodium salt, inoculum size 10^8, pH 7.0, read-out: Minimal inhibitory concentration

SMILES | MIC (Klebsiella sp. 363) | MIC (Ps. aeruginosa 25619) | MIC (Klebsiella pneumoniae) | MIC [1] | MIC (Enterobacter cloacae 233) | MIC (E. coli 377) | MIC (E. coli JC-2) | MIC (E. coli 73) | MIC (Ps. aeruginosa 24) | MIC [2] | MIC (P. morganii No. 9) | MIC (Proteus mirabilis PR-4) | MIC (P. vulgaris CN-329) | MIC (Escherichia coli H)
CC1=C(C(=O)O)N2C(=O)[C@@H](NC(=O)C(N)c3ccccc3)[C@H]2OC1 (stereo partly drawn) [(1), 7β-(α-phenylglycinamido)3-methyl-1-oxadethia-3-cephem-4-carboxlic acid, reference compound] | > 100 µg/mL | > 100 µg/mL | > 100 µg/mL | > 100 µg/mL | > 100 µg/mL | > 100 µg/mL | > 100 µg/mL | > 100 µg/mL | > 100 µg/mL | > 100 µg/mL | > 100 µg/mL | > 100 µg/mL | > 100 µg/mL | > 100 µg/mL
CC(=O)OCC1=C(C(=O)O)N2C(=O)[C@@H](NC(=O)Cc3cccs3)[C@H]2OC1 [(2), 7β-(2thienylacetamido)-1-oxadethiacephalosporanic acid, reference compound] | > 100 µg/mL | > 100 µg/mL | 1.56 µg/mL | > 100 µg/mL | > 100 µg/mL | > 100 µg/mL | 6.25 µg/mL | > 100 µg/mL | > 100 µg/mL | > 100 µg/mL | > 100 µg/mL | 1.56 µg/mL | > 100 µg/mL | 0.39 µg/mL
Cc1nnc(SCC2=C(C(=O)O)N3C(=O)[C@@H](NC(=O)Cn4cnnn4)[C@H]3OC2)s1 [(3), 7β-(1tetrazolyl)acetamido-3-(2-methyl-1,3,4-thiadiazol-5-yl)thiomethl-1-oxadethia-3-cephem-4-carboxylic acid, reference compound] | > 100 µg/mL | > 100 µg/mL | 3.13 µg/mL | > 100 µg/mL | > 100 µg/mL | 25 µg/mL | 1.56 µg/mL | > 100 µg/mL | > 100 µg/mL | > 100 µg/mL | 50 µg/mL | 1.56 µg/mL | > 100 µg/mL | 1.56 µg/mL
Cn1nnnc1SCC1=C(C(=O)O)N2C(=O)[C@@H](NC(=O)C(O)c3ccccc3)[C@H]2OC1 (stereo partly drawn) [(4), 7β-mandelamido3-(1-methyltetrazol-5-yl)thiomethyl-1-oxadethia-3-cephm-4-carboxylic acid, reference compound] | > 100 µg/mL | > 100 µg/mL | 0.2 µg/mL | 100 µg/mL | > 100 µg/mL | 50 µg/mL | 0.2 µg/mL | > 100 µg/mL | > 100 µg/mL | > 100 µg/mL | 100 µg/mL | 0.2 µg/mL | > 100 µg/mL | 0.1 µg/mL
Cn1nnnc1SCC1=C(C(=O)O)N2C(=O)[C@@H](NC(=O)C(C(=O)O)c3ccccc3)[C@H]2OC1 (stereo partly drawn) [Example III-1, 7β-(α-phenyl-α-carboxyacetamido)-3-(1-methyltetrazol-5-yl)thiomethyl-1-oxadethia-3-cephem-4-carboxylic acid] | – | 3.13 µg/mL | 0.2 µg/mL | 0.78 µg/mL | 0.39 µg/mL | 0.2 µg/mL | 0.2 µg/mL | > 100 µg/mL | > 100 µg/mL | > 100 µg/mL | 0.39 µg/mL | 0.39 µg/mL | 100 µg/mL | 0.1 µg/mL
